We go through eight compounds from patent publication US6413983B1, “Benzopyranyl heterocycle derivatives, process for preparation thereof, and pharmaceutical compositions containing them” (Dongbu Hannong Chemical Co. Ltd., priority 2000, dated 2002).

In test [1] the test system is isolated rat aorta constricted with methoxamine. The test can be described thus: Vasodilation effects on isolated aorta of rats (methoxamine-constricted rings). The note with it: isolated rat aorta constricted with methoxamine (3 μM); 50% relaxation.
Source text: Male Sprague-Dawly rats (350-450 g, obtained from the Experimental Animal Team of the Korea Research Institute of Chemical Technology) were knocked unconscious by hitting the occipital region, sacrificed by cervical dislocation, and underwent thoracotomy. After being quickly removed, the thoracic aorta was deprived of the adipose tissue and cut into aortic rings of 3 mm width. The aorta was lightly rubbed with cotton club soaked in a modified Krebs Henseleit buffer (Physiological Salt Solution, PSS) to remove the inner epithelial layer therefrom.
Thereafter, 3×10^−6 M methoxamine was applied to induce an intensive constriction in the vascular smooth muscle. When the vasoconstriction induced by the methoxamine was reached and maintained to a maximum, test compounds and controls were cumulatively added to the organ baths in concentrations of 1, 3, 10 and 30 μM so as to examine the vasodilation effect.
The change rate of constriction by the addition of the drugs compared to the maximal constriction induced by methoxamine was calculated to plot a concentration-relaxation response curve.
The test system of test [2] is ischemic myocardium damage model of anesthetized rats. Kind of test: Cardioprotective activity in ischemic heart models of rats (LAD occlusion/reperfusion, anesthetized rats). The format is in vivo, rat. The note with it: rat, in vivo, iv, 0.3 mg/kg. How it is done:
After trachetomy, the rats were rendered to respire artificially at a rate of 60/min with a stroke volume of 10 ml/kg. Cannulars were inserted into the fermoral vein and the fermoral artery and used for drug administration and blood pressure measurement, respectively.
In the ischemic myocardial injury models, the body temperature has an important influence on the results. To avoid the change in the body temperature, a body temperature measuring probe was inserted into the rectum of each rat and the body temperature was constantly kept at 37° C. with the aid of a homeothermic blanket control unit.
Afterwards, during testing, a continuous measurement was made of the mean arterial blood pressures and heart rates from the rats. For the measurement of the blood pressure, a pressure transducer, such as that manufactured by Grass Ins., MA, U.S.A., identified as Model Statham P23XL, was used.
The heart rate was measured by a tachometer, such as that manufactured by Gould Inc., Ohio, U.S.A., identified as Biotachometer. In addition, all of the changes occurring were continuously recorded through the Gould 2000 chart recorder, manufactured by Gould Inc.
The left coronary artery was occluded according to the Selye H. method as follows. The rats underwent a left thoracotomy operation for partial opening of the chest and the right-side chest was pressurized by the middle finger of the left hand to push the heart out. Immediately after the left anterior descending coronary artery hereinafter referred to as (LAD) was carefully stitched using a suture needle with 5-0 silk ligature, the heart was then repositioned in the thoracic cavity while both ends of the ligature were situated outside. The opposite ligature ends were passed through a PE tube (PE100, 2.5 cm) and allowed to stand loose for 20 min for stabilization. Via the cannula inserted into the femoral vein, vehicles or drugs were administered into the rats which were rendered to stand for 30 min in order to sufficiently elicit the efficacies of the drugs.
Next, the PE tube which had the doubled strands of the ligature passed therethrough was pushed toward the heart and then, set upright by tightly pulling end regions of the ligature with a hemostatic pincette while pressing the coronary artery.
After the reocclusion of the coronary artery in accordance with the above procedure, the rats were administered with 2 ml of a 1% Evans blue through an intravenous route. Subsequently, an excess of pentobarbital was intravenously injected to kill the rats, after which the heat was removed and then, deprived of the right ventricle and both atria. The left ventricle was cut horizontally to the heart apex into 5 or 6 slices which were weighed. From the surface of each slice, images were input with the aid of a Hi-scope into a computer installed with an image analyzing program (Image Pro Plus). From the images input into the computer, the area of the normal blood stream tissue region which appeared blue in a computer monitor and the area which appeared colorless were measured. The percentage of the colorless area to the total area of each slice was calculated and multiplied by the weight of each slice to determine the area at risk (AAR) of each slice. The AAR obtained from each slice was summed for all slices and the total AAR was divided by the total weight of the left ventricle to yield % AAR, as shown in the following mathematical formula 1:
AAR(%)=(summed AAR for all slices)/(total weight of left ventricle)×100 [Mathematical Formula 1]
During this fixation, 2,3,5-triphenyltetrazolium chloride was reduced into formazan dye by the myocardial dehydrogenase and its cofactor NADH, so that the normal regions of the tissue were colored brick-red. In contrast, the infarct zones of the tissue were deficient in the dehydrogenase and its cofactor, so that no reduction occurred on the 2,3,5-triphenyltetrazolium, allowing the color to remain unchanged.

For another test, the system named is isolated rat hearts. Kind of test: Cardioprotective activity in isolated ischemic heart models of rats (Langendorff, global ischemia/reperfusion). As to conditions: for EDP (MmHg) / LDVP × HR (%) / TTC: 10 μM; for EDP (MmHg): left ventricular end-diastolic pressure after 30 min reperfusion; for LDVP × HR (%): reperfusion double product as % of pretreatment DP, 30 min global ischemia, 30 min reperfusion; for TTC: time to contracture during global ischemia. The procedure: Male Sprague-Dawley rats weighing 300-450 g were anesthetized with sodium pentobarbital (100 mg/kg, i.p.). The tail vein was injected with heparin (1,000 U/kg) and then the trachea was intubated. […] A latex balloon filled with solvent (ethanol: water=1:1 (v/v)) and attached to a metal cannula was placed in the left ventricle through pulmonary vein and connected to a Isotec pressure transducer (H.S.E., Germany) for measurement of left ventricular pressure (LVP). […] Then, baseline contractile function, heart rate (HR), and coronary flow (CF) (extracorporeal electromagnetic flow probe, Narco Bio-System, U.S.A.) were measured. Cardiac contractile function was calculated by subtracting LVEDP from LV peak systolic pressure (LVSP), yielding developed pressure (LVDP). Double product (DP), another important parameter for assessing cardiac performance, was calculated by multiplying HR by LVDP. Throughout the experiment, all these parameters were measured, and calculated before and 10 min after pretreatment with each compound and 30 min after the onset of reperfusion with buffer. Data on reperfusion DP were further expressed as the percentage to pretreatment DP.
We then rendered the hearts globally ischemic by completely shutting off the perfusate for 30 min. Severity of ischemia was determined as the time to contracture (TTC, min) during global ischemia in which the first 5 mmHg increase in EDP was observed. Then, the hearts were reperfused and, 30 min later, contractile function (LVDP, DP) and cumulative reperfusion lactate dehydrogenase (LDH) release were measured. LDH was measured as a sensitive index for loss of cell viability with a kit supplied by Boerhinger Mannheim based on the technique of Wroblewski and LaDue [F. Wroblewski and JS.

Test [3] concerns cerebral cortical neurons. Kind of test: Protective activity for neuronal cells against iron-induced damage (LDH release). The format is cell-based, rat. The note with it: 30 μM compound, 50 uM FeSO4, 24 hours, LDH reduction rate vs control. How it is done:
From the brains of 17-18 day-old rat embryos, cerebral cortical neurons were isolated and then, cultured at 37° C. for 7-9 days in a 5% CO2 incubator. The cortical cell cultures were washed twice with a minimum essential medium (MEM) to reduce the serum concentration to 0.2% and pre-treated for 30 min with 30 μM of each of test compounds. For the experiments, the test compounds were dissolved in DMSO and diluted in a medium. At this time, the final concentration of DMSO was not allowed to exceed 0.2%. For a control group, only vehicle was applied.
After the pre-treatment with test compounds or vehicle, FeSO4 was added to a final concentration of 50 uM, and the cultures were maintained for 24 hours in a CO2 incubator. During incubation, lactate dehydrogenase (LDH) was released into the medium upon neuronal death by the oxidative toxicity of iron. The extent of neuronal damage was assessed by measuring the amount of LDH released into the media. The protective effect of the compounds of interest on neurons was evaluated by calculating the LDH reduction rate of treatment group compared with that of the control group.
(LDH leaks from cells whose membrane has failed.)

The next test has as its system rat brain homogenate. The test can be described thus: Inhibitory activity against iron-induced lipid peroxidation (MDA quantification). The format is biochemical. The note with it: 100 μM compound, 400 μM FeCl2, 37° C., 30 min, MDA reduction rate vs control. The procedure: The rat brain was homogenized in a Krebs buffer (15 mM HEPES, 10 mM glucose, 140 mM NaCl, 3.6 mM KCl, 1.5 mM CaCl2, 1.4 mM KH2PO4, 0.7 mM MgCl2, pH 7.4) and the supernatant separated by centrifugation at 12,000 rpm for 10 min was used for further experiments. FeCl2 was added to a final concentration of 400 μM in the brain homogenate which was then allowed to stand at 37° C. for 30 min for the facilitation of oxidation. Each of the test compounds was added at a concentration of 100 μM and vehicle was used as a control.
Iron facilitates the oxidation of the brain homogenate to produce malondialdehyde (MDA), a lipid peroxidation product. Thus, the lipid peroxidation was determined by MDA quantification. The inhibitory effect of the test compounds against the lipid peroxidation was evaluated by calculating MDA reduction rate of the test compounds compared with that of the control group.
Typically, the MDA quantification is achieved by reacting samples with 2-thiobarbituric acid (TBA) and measuring the absorbance at 530 nm. However, this method is unsuitable to treat samples on a large scale because of a boiling step. Thus, in this experiment, N-methyl-2-phenylindole was used instead of TBA. […] Bioxytech^R LPO-586 Kit was used for MDA quantification.

Structures are written as SMILES.

In test [1], `CCOC(=O)[C@H]1Cc2cc(OC)ccc2N1[C@@H]1c2cc([N+](=O)[O-])ccc2O[C@@](C)(C(OC)OC)[C@H]1O` [Example 36, 1-[(2R, 3S, 4R)-3,4-dihydro-2-dimethoxymethyl-3-hydroxy-2-methyl-6-nitro-2H-1-benzopyran-4-yl]-(2R)-2,3-dihydro-1H-5-methoxyindole-2-carboxylic acid ethyl ester] gave an IC50 above 30 µM. In addition, in test [2], the “AAR/LV (%)” value is on record as 37.5% and the “IZ/AAR (%)” value was found to be 41.4%. Further, in the test with isolated rat hearts, the “LDH (U/g)” value is listed as 18.9 U/g, the “EDP (MmHg)” value came to 23.3 MmHg, the “LDVP × HR (%)” value was 53.1% and the “TTC” value was 24.7 min.

As to `CCOC(=O)[C@H]1Cc2ccccc2N1[C@H]1c2cc(N)ccc2O[C@](C)(C(OC)OC)[C@@H]1O` [Example 42, 1-[(2S, 3R, 4S)-6-amino-3,4-dihydro-2-dimethoxymethyl-3-hydroxy-2-methyl-2H-1-benzopyran-4-yl]-(2R)-2,3-dihydro-1H-indole-2-carboxylic acid ethyl ester], the “% Protection” value in test [3] came to 100%. In the test with rat brain homogenate (listed as EX. 42), the “% Inhibition” value was found to be 90%.

For `CCOC(=O)[C@@H]1Cc2cc(Cl)ccc2N1[C@H]1c2cc([N+](=O)[O-])ccc2O[C@](C)(C(OC)OC)[C@@H]1O` [Example 20, 1-[(2S, 3R, 4S)-3,4-dihydro-2-dimethoxymethyl-3-hydroxy-2-methyl-6-nitro-2H-1-benzopyran-4-yl]-(2S)-2,3-dihydro-1H-5-chloroindole-2-carboxylic acid ethyl ester], in test [1], the IC50 was above 30 µM. Further, in test [3], the “% Protection” value is recorded as 69%. For the same compound, in test [2], the “AAR/LV (%)” value came out at 35.4% and the “IZ/AAR (%)” value came to 35.1%.

In the case of `CCOC(=O)[C@@H]1Cc2cc(OC)ccc2N1[C@@H]1c2cc([N+](=O)[O-])ccc2O[C@@](C)(C(OC)OC)[C@H]1O` [Example 35, 1-[(2R, 3S, 4R)-3,4-dihydro-2-dimethoxymethyl-3-hydroxy-2-methyl-6-nitro-2H-1-benzopyran-4-yl]-(2S)-2,3-dihydro-1H-5-methoxyindole-2-carboxylic acid ethyl ester], the IC50 in test [1] is above 30 µM. In test [2], the “AAR/LV (%)” value is given as 31.6% and the “IZ/AAR (%)” value was found to be 37.8%. Besides, in the test with isolated rat hearts, the “LDH (U/g)” value was 23.2 U/g, the “EDP (MmHg)” value stood at 19 MmHg, the “LDVP × HR (%)” value was determined as 57.3% and the “TTC” value is on record as 25.1 min.

`CCOC(=O)c1cc2ccccc2n1[C@@H]1c2cc(N)ccc2O[C@](C)(C(OC)OC)[C@H]1O` [Example 53, 1-[(2S, 3S, 4R)-6-amino-3,4-dihydro-2-dimethoxymethyl-3-hydroxy-2-methyl-2H-1-benzopyran-4-yl]-1H-indole-2-carboxylic acid ethyl ester]: in test [3] (listed as EX. 53), the “% Protection” value is reported as 94%. Moreover, the “% Inhibition” value with rat brain homogenate (listed as EX. 53) came to 91%.

On to `CCOC(=O)[C@H]1Cc2cc(OC)ccc2N1[C@H]1c2cc([N+](=O)[O-])ccc2O[C@](C)(C(OC)OC)[C@@H]1O` [Example 11, 1-[(2S, 3R, 4S)-3,4-dihydro-2-dimethoxymethyl-3-hydroxy-2-methyl-6-nitro-2H-1-benzopyran-4-yl]-(2R)-2,3-dihydro-1H-5-methoxyindole-2-carboxylic acid ethyl ester], for which, in test [1], the half-maximal inhibitory concentration (IC50) worked out at 16.5 µM. In addition, in test [2], the “AAR/LV (%)” value was 38.3% and the “IZ/AAR (%)” value is 42.1%. In the test with isolated rat hearts, the “LDH (U/g)” value worked out at 13.3 U/g, the “EDP (MmHg)” value is on record as 14.7 MmHg, the “LDVP × HR (%)” value was determined as 66.5% and the “TTC” value turned out to be 22.9 min.

For the compound `CCOC(=O)[C@H]1Cc2ccccc2N1[C@@H]1c2cc(N)ccc2O[C@](C)(C(OC)OC)[C@H]1O` [Example 44, 1-[(2S, 3S, 4R)-6-amino-3,4-dihydro-2-dimethoxymethyl-3-hydroxy-2-methyl-2H-1-benzopyran-4-yl]-(2R)-2,3-dihydro-1H-indole-2-carboxylic acid ethyl ester], in test [3], the “% Protection” value was found to be 89%. For the same compound, the “% Inhibition” value in the test with rat brain homogenate (listed as EX. 44) was determined as 90%.

On to `CCOC(=O)[C@@H]1Cc2ccccc2N1[C@H]1c2cc(N)ccc2O[C@](C)(C(OC)OC)[C@@H]1O` [Example 43, 1-[(2S, 3R, 4S)-6-amino-3,4-dihydro-2-dimethoxymethyl-3-hydroxy-2-methyl-2H-1-benzopyran-4-yl]-(2S)-2,3-dihydro-1H-indole-2carboxylic acid ethyl ester], for which the results for the “% Protection” value in test [3] and in test [3] (listed as EX. 43) were 100% and 101%, respectively. Besides, the “% Inhibition” value in the test on rat brain homogenate (listed as EX. 43) is 93%.

In general, IC50 refers to the concentration at which inhibition is half-maximal. Lower therefore signals higher potency. The % Inhibition is the drop in the measured response relative to a control, in per cent.
